Source: patent publication US20200148646A1, “6-S[…] 7-S[…] ANALOGS AND THE USE THEREOF” (Purdue Pharma, L.P., priority 2013, published 2020)

How the values were obtained:
μ-opioid receptor [1] = target: T1, μ-opioid receptor (Homo sapiens, UniProt P35372); assay: μ-opioid receptor [35S]GTPγS functional assay, U-2 OS cells; type: biochemical; set-up: host or cells: U-2 OS cells; conditions: for Emax: U2-OS cells, relative to DAMGO
How it was run: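 U-2 OS membranes expressing recombinant human μ-receptor (0.026 mg/mL) were incubated with compound, […], saponin and [35S]GTPγS 0.20 nM in HEPES/NaCl/MgCl2 buffer pH 7.4 for 30 min at about 25° C. Filter-bound radioactivity gave sigmoidal fits for EC50; Emax is relative to DAMGO.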

human κ opioid receptor [2] = target: T2, human κ opioid receptor (Homo sapiens, UniProt P41145); assay: κ-opioid receptor [35S]GTPγS functional assay, U-2 OS cells; type: biochemical; set-up: expressed in transfected cells; host or cells: U-2 OS cells (in-house membranes); conditions: for Emax: U2-OS cells, relative to U69,593
T2 sequence (P41145 whole entry): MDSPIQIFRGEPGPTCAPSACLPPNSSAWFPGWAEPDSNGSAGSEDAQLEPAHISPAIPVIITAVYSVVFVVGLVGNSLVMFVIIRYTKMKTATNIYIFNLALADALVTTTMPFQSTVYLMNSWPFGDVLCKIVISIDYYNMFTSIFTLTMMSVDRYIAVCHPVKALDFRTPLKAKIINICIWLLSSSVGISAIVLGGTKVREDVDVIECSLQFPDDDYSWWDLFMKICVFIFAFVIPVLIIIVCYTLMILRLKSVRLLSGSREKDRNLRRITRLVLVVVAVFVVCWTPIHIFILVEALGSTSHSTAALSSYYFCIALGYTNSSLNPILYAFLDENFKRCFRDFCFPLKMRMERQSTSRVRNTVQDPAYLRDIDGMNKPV
How it was run: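 Membranes from U-2 OS cells expressing human κ receptor (0.026 μg/μl protein) were incubated with agonist, 10 μg/mL saponin, 3 μM GDP and 0.20 nM [35S]GTPγS in pH 7.4 HEPES buffer for 30 min at about 25 °C. Bound radioactivity was measured after filtration. EC50 was taken at half-maximal response; Emax is relative to U69,593.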

human κ opioid receptor [3] = target: T2, human κ opioid receptor; assay: κ-opioid receptor radioligand ([3H]-U69,593) dose-displacement binding assay, HEK-293 or CHO cells; set-up: expressed in transfected cells; host or cells: HEK-293 cells (in-house prep)
Description: Membranes from recombinant HEK-293 cells expressing the human K opioid receptor (cloned in house) were prepared by lysing cells in ice cold hypotonic buffer (2.5 mM MgCl2, 50 mM HEPES, pH 7.4) (10 mL/10 cm dish) followed by homogenization with a tissue grinder/Teflon pestle. Membranes were collected by centrifugation at 30,000×g for 15 min at 4° C. and pellets were resuspended in hypotonic buffer to a final concentration of 1-3 mg/mL. Protein concentrations were determined using the BioRad protein assay reagent with bovine serum albumen as standard. Aliquots of κ receptor membranes were stored at −80° C.
Radioligand dose displacement assays used 0.4 nM [^3H]-U69,593 (GE Healthcare, Piscataway, N.J.; 40 Ci/mmole) with 15 μg membrane protein (recombinant K opioid receptor expressed in HEK 293 cells; in-house prep) in a final volume of 200 μl binding buffer (5% DMSO, 50 mM Trizma base, pH 7.4). Non-specific binding was determined in the presence of 10 μM unlabeled naloxone or U69,593. All reactions were performed in 96-well polypropylene plates for 1 hr at a temperature of about 25° C. Binding reactions were terminated by rapid filtration onto 96-well Unifilter GF/C filter plates (Perkin Elmer, Shelton, Conn.) presoaked in 0.5% polyethylenimine (Sigma). Harvesting was performed using a 96-well tissue harvester (Perkin Elmer, Shelton, Conn.) followed by five filtration washes with 200 μl ice-cold binding buffer. Filter plates were subsequently dried at 50° C. for 1-2 hours. Fifty μl/well scintillation cocktail (Perkin Elmer, Shelton, Conn.) was added and plates were counted in a Packard Top-Count for 1 min/well.
(§1) In TABLE 1, binding affinity of certain Compounds of the Invention to the μ-, and κ-opioid receptors in HEK-293 or CHO cells was determined as described above.

μ-opioid receptor [4] = target: T1, μ-opioid receptor; assay: μ-opioid receptor radioligand ([3H]-diprenorphine) dose-displacement binding assay, HEK-293 or CHO cells
Description: Radioligand dose-displacement binding assays for μ-opioid receptors used 0.3 nM [^3H]-diprenorphine (Perkin Elmer, Shelton, Conn.), with […] membrane protein/well in a final volume of 500 μl binding buffer (10 mM MgCl2, 1 mM EDTA, 5% DMSO, 50 mM HEPES, pH 7.4). Reactions were carried out in the absence or presence of increasing concentrations of unlabeled naloxone. All reactions were conducted in 96-deep well polypropylene plates for 2 hr at room temperature. Binding reactions were terminated by rapid filtration onto 96-well Unifilter GF/C filter plates (Perkin Elmer, Shelton, Conn.), presoaked in 0.5% polyethylenimine using a 96-well tissue harvester (Perkin Elmer, Shelton, Conn.) followed by performing three filtration washes with 500 μl of ice-cold binding buffer. Filter plates were subsequently dried at 50° C. for 2-3 hours. BetaScint scintillation cocktail (Perkin Elmer, Shelton, Conn.) was added (50 l/well), and plates were counted using a Packard Top-Count for 1 min/well. The data were analyzed using the one-site competition curve fitting functions in GraphPad PRISM™ v. 3.0 or higher (San Diego, Calif.), or an in-house function for one-site competition curve-fitting.
as §1

μ-opioid receptor [5] = target: T1, μ-opioid receptor; assay: μ-opioid receptor [35S]GTPγS functional assay, HEK-293 or CHO cells; type: biochemical; conditions: for Emax: HEK-293 or CHO cells, relative to DAMGO
Description: [^35S]GTPγS functional assays were conducted using freshly thawed μ-receptor membranes prepared in-house from a cell line expressing recombinant opioid receptor in a HEK-293, CHO or U-2 OS cell background, or purchased from a commercial source (Perkin Elmer, Shelton, Conn.; or DiscovRx, Fremont, Calif.). Assay reactions were prepared by sequentially adding the following reagents to binding buffer (100 mM NaCl, 10 mM MgCl2, 20 mM HEPES, pH 7.4) on ice (final concentrations indicated): membrane protein (0.026 mg/mL), saponin ([…]), GDP ([…]) and [^35S]GTPγS (0.20 nM; Perkin Elmer, Shelton, Conn.). The prepared membrane solution (190 l/well) was transferred to 96-shallow well polypropylene plates containing 10 μl of 20× concentrated stock solutions of the agonist [D-Ala^2, N-methyl-Phe^4 Gly-ol^5]-enkephalin (DAMGO) prepared in dimethyl sulfoxide (DMSO). Plates were incubated for 30 min at about 25° C. with shaking. Reactions were terminated by rapid filtration onto 96-well Unifilter GF/B filter plates (Perkin Elmer, Shelton, Conn.) using a 96-well tissue harvester (Perkin Elmer, Shelton, Conn.) followed by three filtration washes with 200 μl of ice-cold wash buffer (10 mM NaH2PO4, 10 mM Na2HPO4, pH 7.4). Filter plates were subsequently dried at 50° C. for 2-3 hr. BetaScint scintillation cocktail (Perkin Elmer, Shelton, Conn.) was added (50 μl/well) and plates were counted using a Packard Top-Count for 1 min/well. Data were analyzed using the sigmoidal dose-response curve fitting functions in GraphPad PRISM v. 3.0, or an in-house function for non-linear, sigmoidal dose-response curve-fitting.
μ GTP EC50 is the concentration of a compound providing 50% of the maximal response for the compound at a μ-opioid receptor.
μ GTP Emax (%) is the maximal effect elicited by a compound relative to the effect elicited by DAMGO, a standard agonist. Generally, the μ GTP Emax (%) value measures the efficacy of a compound to treat or prevent pain or other Conditions.
In TABLE 2, activity response of certain Compounds of the Invention at the μ- and κ-opioid receptors using HEK-293 or CHO cells was determined as described above for functional assays.

T1 sequence (P35372 whole entry, species assumed): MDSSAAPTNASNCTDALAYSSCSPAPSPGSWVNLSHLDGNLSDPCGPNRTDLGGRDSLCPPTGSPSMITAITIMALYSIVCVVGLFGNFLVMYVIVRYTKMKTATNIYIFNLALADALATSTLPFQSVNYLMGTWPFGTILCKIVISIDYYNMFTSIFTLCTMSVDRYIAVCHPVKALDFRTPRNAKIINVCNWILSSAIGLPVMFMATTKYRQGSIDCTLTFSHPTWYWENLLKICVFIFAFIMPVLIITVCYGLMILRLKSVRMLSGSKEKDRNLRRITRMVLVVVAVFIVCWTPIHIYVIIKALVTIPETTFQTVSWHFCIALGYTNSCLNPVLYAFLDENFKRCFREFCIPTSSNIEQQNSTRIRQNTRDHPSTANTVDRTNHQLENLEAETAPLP

Structure (SMILES) | EC50 (μ-opioid receptor [1]) [nM] | Emax (μ-opioid receptor [1]) [%] | EC50 (human κ opioid receptor [2]) [nM] | Emax (human κ opioid receptor [2]) [%] | Ki (human κ opioid receptor [3]) [nM] | Ki (μ-opioid receptor [4]) [nM] | EC50 (μ-opioid receptor [5]) [nM] | Emax (μ-opioid receptor [5]) [%]
NCCCN[C@@H]1CC[C@@]2(O)[C@H]3Cc4ccc(O)cc4[C@@]2(CCN3CC2CC2)C1 [Compound 13, (4bR,6R,8aS,9R)-6-((3-aminopropyl)amino)-11-(cyclopropylmethyl)-5,6,7,8,9,10-hexahydro-8aH-9,4b-(epiminoethano)phenanthrene-3,8a-diol] | 38.9 ± 4.9 | 66.3 ± 5.78 | 2.13 ± 0.41 | 117 ± 1.86 | 0.51 ± 0.073 | 80 ± 27.1 | – | –
NCCCCN[C@@H]1CC[C@@]2(O)[C@H]3Cc4ccc(O)cc4[C@@]2(CCN3CC2CC2)C1 [Compound 14, (4bR,6R,8aS,9R)-6-((4-aminobutyl)amino)-11-(cyclopropylmethyl)-5,6,7,8,9,10-hexahydro-8aH-9,4b-(epiminoethano)phenanthrene-3,8a-diol] | 85.6 ± 3.31 | 74.3 ± 2.19 | 5.47 ± 0.3 | 112 ± 5.13 | 0.56 ± 0.052 | 124 ± 43.5 | > 20000 | 8.67 ± 2.96
N=C(N)NCCCN[C@@H]1CC[C@@]2(O)[C@H]3Cc4ccc(O)cc4[C@@]2(CCN3CC2CC2)C1 [Compound 15, 1-(3-(((4bR,6R,8aS,9R)-11-(cyclopropylmethyl)-3,8a-dihydroxy-6,7,8,8a,9,10-hexahydro-5H-9,4b-(epiminoethano)phenanthren-6-yl)amino)propyl)guanidine] | 41.5 ± 8.55 | 76.3 ± 3.38 | 12.8 ± 1.3 | 108 ± 2.65 | 0.53 ± 0.13 | 54.1 ± 10.1 | 1110 ± 447 | 11.3 ± 0.33
N=C(N)NCCCCN[C@@H]1CC[C@@]2(O)[C@H]3Cc4ccc(O)cc4[C@@]2(CCN3CC2CC2)C1 [Compound 16, 1-(4-(((4bR,6R,8aS,9R)-11-(cyclopropylmethyl)-3,8a-dihydroxy-6,7,8,8a,9,10-hexahydro-5H-9,4b-(epiminoethano)phenanthren-6-yl)amino)butyl)guanidine] | 53.7 ± 11.5 | 78 ± 3.61 | 15 ± 1.15 | 105 ± 2.89 | 0.48 ± 0.055 | 70.5 ± 13.8 | 811 ± 442 | 9 ± 0.58
N=C(N)NCC(=O)N[C@@H]1CC[C@@]2(O)[C@H]3Cc4ccc(O)cc4[C@@]2(CCN3CC2CC2)C1 [Compound 20, N-((4bR,6R,8aS,9R)-11-(cyclopropylmethyl)-3,8a-dihydroxy-6,7,8,8a,9,10-hexahydro-5H-9,4b-(epiminoethano)phenanthren-6-yl)-2-guanidinoacetamide] | 394 ± 57.8 | 62.7 ± 4.26 | 62.3 ± 2.37 | 111 ± 2.4 | 3.23 ± 0.7 | 449 ± 53.5 | > 20000 | 7.33 ± 0.88
N=C(N)NCCC(=O)N[C@@H]1CC[C@@]2(O)[C@H]3Cc4ccc(O)cc4[C@@]2(CCN3CC2CC2)C1 [Compound 21, N-((4bR,6R,8aS,9R)-11-(cyclopropylmethyl)-3,8a-dihydroxy-6,7,8,8a,9,10-hexahydro-5H-9,4b-(epiminoethano)phenanthren-6-yl)-3-guanidinopropanamide] | – | – | 120 ± 2.94 | 105.3 ± 0.88 | 4.61 ± 1.05 | 1010 ± 221 | – | –
